target: histone deacetylase (HeLa nuclear extracts); assay: In vitro assay for inhibition of histone deacetylase (HDAC Fluorescent Activity Assay, Fluor de Lys); format: biochemical; design: key: pIC50 = negative log of IC50; settings: HeLa nuclear extracts 60 μg/ml, 75 μM Fluor de Lys substrate, pH 7.4, 30 min
Description: The in vitro assay for inhibition of histone deacetylase (see example C.1) measures the inhibition of HDAC enzymatic activity obtained with the compounds of formula (I).
The HDAC Fluorescent Activity Assay/Drug Discovery Kit of Biomol (cat. No: AK-500-0001) was used. The HDAC Fluorescent Activity Assay is based on the Fluor de Lys (Fluorogenic Histone deAcetylase Lysyl) substrate and developer combination. The Fluor de Lys substrate, comprises an acetylated lysine side chain. Deacetylation of the substrate sensitizes the substrate so that, in the second step, treatment with the Fluor de Lys developer produces a fluorophore.
HeLa nuclear extracts (supplier: Biomol) were incubated at 60 μg/ml with 75 μM of substrate. The Fluor de Lys substrate was added in a buffer containing 25 mM Tris, 137 mM NaCl, 2.7 mM KCl and 1 mM MgCl2.6H2O at pH 7.4. After 30 min, 1 volume of the developer was added. The fluorophore was excited with 355 nm light and the emitted light (450 nm) was be detected on a fluorometric plate reader.
For each experiment, controls (containing HeLa nuclear extract and buffer), a blank incubation (containing buffer but no HeLa nuclear extract) and samples (containing compound dissolved in DMSO and further diluted in buffer and HeLa nuclear extract) were run in parallel. In first instance, compounds were tested at a concentration of 10^−5M. […] All sample were tested 4 times. In each test the blank value was subtracted from both the control and the sample values. The control sample represented 100% of substrate deactylation. For each sample the fluorescence was expressed as a percentage of the mean value of the controls. When appropriate IC50-values (concentration of the drug, needed to reduce the amount of metabolites to 50% of the control) were computed using probit analysis for graded data. Herein the effects of test compounds are expressed as pIC50 (the negative log value of the IC50-value) (see Table F-2).

SMILES	Enzymatic activity pIC50 C.1.
COc1cc(CNc2c(N3CCN(c4ncc(C(=O)NO)cn4)CC3)c(=O)c2=O)cc(OC)c1OC [Compound 13]	7.4
CCCCCNc1c(N2CCN(c3ncc(C(=O)NO)cn3)CC2)c(=O)c1=O [Compound 3]	7.6
O=C(NO)c1cnc(N2CCN(c3c(NCCOc4ccccc4)c(=O)c3=O)CC2)nc1 [Compound 16]	7.3
O=C(NO)c1cnc(N2CCN(c3c(NCc4cccc(C(F)(F)F)c4)c(=O)c3=O)CC2)nc1 [Compound 12]	7.2
O=C(NO)c1cnc(N2CCN(c3c(NCC4(c5ccc(Cl)cc5)CC4)c(=O)c3=O)CC2)nc1 [Compound 8]	7.2
O=C(NO)c1cnc(N2CCN(c3c(NC4CCCc5ccccc54)c(=O)c3=O)CC2)nc1 (stereo not drawn) [Compound 4]	7.2
O=C(NO)c1cnc(N2CCN(c3c(NCCCN4CCCC4=O)c(=O)c3=O)CC2)nc1 [Compound 15]	6.8
O=C(NO)c1cnc(N2CCN(c3c(NCCc4ccccc4)c(=O)c3=O)CC2)nc1 [Compound 10]	7.1
O=C(NO)c1cnc(N2CCN(c3c(NCC4CCN(Cc5ccccc5)C4)c(=O)c3=O)CC2)nc1 (stereo not drawn) [Compound 2]	6.9
CCN(CC)CCCNc1c(N2CCN(c3ncc(C(=O)NO)cn3)CC2)c(=O)c1=O [Compound 6]	7.2
O=C(NO)c1cnc(N2CCN(c3c(NCCOc4cccc(Cl)c4)c(=O)c3=O)CC2)nc1 [Compound 5]	7.4
O=C(NO)c1cnc(N2CCN(c3c(NCc4ccco4)c(=O)c3=O)CC2)nc1 [Compound 7]	7.2
O=C(NO)c1cnc(N2CCN(c3c(NCCc4ccccn4)c(=O)c3=O)CC2)nc1 [Compound 11]	7.0
O=C(NO)c1cnc(N2CCN(c3c(NCc4cccnc4)c(=O)c3=O)CC2)nc1 [Compound 9]	7.0
O=C(NO)c1cnc(N2CCN(c3c(Nc4cccc(-c5ccccc5)c4)c(=O)c3=O)CC2)nc1 [Compound 1]	7.7
O=C(NO)c1cnc(N2CCN(c3c(NCCNc4ccccc4)c(=O)c3=O)CC2)nc1 [Compound 14]	6.9

system: not listed separately; assay: Kinetic solubility in aqueous media (nephelometry); format: physicochemical; settings: aqueous buffer, kinetic from dmso stock; phosphate citrate buffer pH 7.4, dilution of 5 mM DMSO stock, turbidity by nephelometer; read-out: Solubility C.2. score
Method: The solubility of a compound measures the ability of a compound to stay in solution. DMSO-stock solutions are diluted with a single aqueous buffer solvent in 3 consecutive steps. For every dilution turbidity is measured with a nephelometer. (see example C.2).
In the first dilution step, 10 μl of a concentrated stock-solution of the active compound, solubilized in DMSO (5 mM), was added to 100 μl phosphate citrate buffer pH 7.4 and mixed. In the second dilution step, an aliquot (20 μl) of the first dilution step was further dispensed in 100 μl phosphate citrate buffer pH 7.4 and mixed. Finally, in the third dilution step, a sample (20 μl) of the second dilution step was further diluted in 100 μl phosphate citrate buffer pH 7.4 and mixed. All dilutions were performed in 96-well plates. Immediately after the last dilution step the turbidity of the three consecutive dilution steps were measured with a nephelometer. Dilution was done in triplicate for each compound to exclude occasional errors. Based on the turbidity measurements a ranking is performed into 3 classes. Compounds with high solubility obtained a score of 3 and for this compounds the first dilution is clear. Compounds with medium solubility obtained a score of 2. For these compounds the first dilution is unclear and the second dilution is clear. […]

SMILES	solubility [µM]
O=C(NO)c1cnc(N2CCN(c3c(NCc4cccc(C(F)(F)F)c4)c(=O)c3=O)CC2)nc1 [Compound 12]	> 454
O=C(NO)c1cnc(N2CCN(c3c(NCc4ccco4)c(=O)c3=O)CC2)nc1 [Compound 7]	> 454

Source: patent publication US7884105B2, “Squaric acid derivatives as inhibitors of histone deacetylase” (Janssen Pharmaceutica, N.V., priority 2005, dated 2011)
